According to ChEMBL document CHEMBL4665624, “Synthesis of 5-(4-(1H-phenanthro[9,10-d]imidazol-2-yl)benzylidene)thiazolidine-2,4-dione as promising DNA and serum albumin-binding agents and evaluation of antitumor activity” (Eur J Med Chem, 2019):

Assays:
BT-549 = assay: Antitumor activity against human BT-549 cells assessed as cell growth inhibition at 10 uM incubated for 48 hrs by sulforhodamine B assay; assay type: functional; details: read-out: GI
RXF 393 = assay: Antitumor activity against human RXF 393 cells assessed as cell growth inhibition at 10 uM incubated for 48 hrs by sulforhodamine B assay; assay type: functional; details: read-out: GI
K562 = assay: Antitumor activity against human K562 cells assessed as cell growth inhibition at 10 uM incubated for 48 hrs by sulforhodamine B assay; assay type: functional; details: read-out: GI
Malme-3M = assay: Antitumor activity against human MALME-3M cells assessed as cell growth inhibition at 10 uM incubated for 48 hrs by sulforhodamine B assay; assay type: functional; details: read-out: GI
M14 = assay: Antitumor activity against human M14 cells assessed as cell growth inhibition at 10 uM incubated for 48 hrs by sulforhodamine B assay; assay type: functional; details: read-out: GI
SF-295 = assay: Antitumor activity against human SF295 cells assessed as cell growth inhibition at 10 uM incubated for 48 hrs by sulforhodamine B assay; assay type: functional; details: read-out: GI
HCC 2998 = assay: Antitumor activity against human HCC2998 cells assessed as cell growth inhibition at 10 uM incubated for 48 hrs by sulforhodamine B assay; assay type: functional; details: read-out: GI
NCI-H460 = assay: Antitumor activity against human NCI-H460 assessed as cell growth inhibition at 10 uM incubated for 48 hrs by sulforhodamine B assay; assay type: functional; details: read-out: GI
KM12 = assay: Antitumor activity against human KM12 cells assessed as cell growth inhibition at 10 uM incubated for 48 hrs by sulforhodamine B assay; assay type: functional; details: read-out: GI
MCF7 = assay: Antitumor activity against human MCF7 cells assessed as cell growth inhibition at 10 uM incubated for 48 hrs by sulforhodamine B assay; assay type: functional; details: read-out: GI
LOX IMVI = assay: Antitumor activity against human LOX IMVI cells assessed as cell growth inhibition at 10 uM incubated for 48 hrs by sulforhodamine B assay; assay type: functional; details: read-out: GI
ACHN = assay: Antitumor activity against human ACHN cells assessed as cell growth inhibition at 10 uM incubated for 48 hrs by sulforhodamine B assay; assay type: functional; details: read-out: GI
MDA-MB-435 = assay: Antitumor activity against human MDA-MB-435 cells assessed as cell growth inhibition at 10 uM incubated for 48 hrs by sulforhodamine B assay; assay type: functional; details: read-out: GI
HT-29 = assay: Antitumor activity against human HT-29 cells assessed as cell growth inhibition at 10 uM incubated for 48 hrs by sulforhodamine B assay; assay type: functional; details: read-out: GI
NCI-H226 = assay: Antitumor activity against human NCI-H226 assessed as cell growth inhibition at 10 uM incubated for 48 hrs by sulforhodamine B assay; assay type: functional; details: read-out: GI
COLO 205 = assay: Antitumor activity against human COLO205 cells assessed as cell growth inhibition at 10 uM incubated for 48 hrs by sulforhodamine B assay; assay type: functional; details: read-out: GI
SK-OV-3 = assay: Antitumor activity against human SK-OV-3 cells assessed as cell growth inhibition at 10 uM incubated for 48 hrs by sulforhodamine B assay; assay type: functional; details: read-out: GI
OVCAR-4 = assay: Antitumor activity against human OVCAR-4 cells assessed as cell growth inhibition at 10 uM incubated for 48 hrs by sulforhodamine B assay; assay type: functional; details: read-out: GI
HL-60(TB) = assay: Antitumor activity against human HL-60(TB) cells assessed as cell growth inhibition at 10 uM incubated for 48 hrs by sulforhodamine B assay; assay type: functional; details: read-out: GI
OVCAR-3 = assay: Antitumor activity against human OVCAR-3 cells assessed as cell growth inhibition at 10 uM incubated for 48 hrs by sulforhodamine B assay; assay type: functional; details: read-out: GI
A498 = assay: Antitumor activity against human A498 cells assessed as cell growth inhibition at 10 uM incubated for 48 hrs by sulforhodamine B assay; assay type: functional; details: read-out: GI
SR = assay: Antitumor activity against human SR cells assessed as cell growth inhibition at 10 uM incubated for 48 hrs by sulforhodamine B assay; assay type: functional; details: read-out: GI
UO-31 = assay: Antitumor activity against human UO-31 cells assessed as cell growth inhibition at 10 uM incubated for 48 hrs by sulforhodamine B assay; assay type: functional; details: read-out: GI
SN12C = assay: Antitumor activity against human SN12C cells assessed as cell growth inhibition at 10 uM incubated for 48 hrs by sulforhodamine B assay; assay type: functional; details: read-out: GI
RPMI-8226 = assay: Antitumor activity against human RPMI8226 cells assessed as cell growth inhibition at 10 uM incubated for 48 hrs by sulforhodamine B assay; assay type: functional; details: read-out: GI
NCI/ADR-RES = assay: Antitumor activity against human NCI/ADR-RES cells assessed as cell growth inhibition at 10 uM incubated for 48 hrs by sulforhodamine B assay; assay type: functional; details: read-out: GI
OVCAR-8 = assay: Antitumor activity against human OVCAR-8 cells assessed as cell growth inhibition at 10 uM incubated for 48 hrs by sulforhodamine B assay; assay type: functional; details: read-out: GI
HCT-116 = assay: Antitumor activity against human HCT116 cells assessed as cell growth inhibition at 10 uM incubated for 48 hrs by sulforhodamine B assay; assay type: functional; details: read-out: GI
SK-MEL-28 = assay: Antitumor activity against human SK-MEL-28 cells assessed as cell growth inhibition at 10 uM incubated for 48 hrs by sulforhodamine B assay; assay type: functional; details: read-out: GI
NCI-H23 = assay: Antitumor activity against human NCI-H23 cells assessed as cell growth inhibition at 10 uM incubated for 48 hrs by sulforhodamine B assay; assay type: functional; details: read-out: GI
NCI-H522 = assay: Antitumor activity against human NCI-H522 cells assessed as cell growth inhibition at 10 uM incubated for 48 hrs by sulforhodamine B assay; assay type: functional; details: read-out: GI
PC-3 = assay: Antitumor activity against human PC-3 cells assessed as cell growth inhibition at 10 uM incubated for 48 hrs by sulforhodamine B assay; assay type: functional; details: read-out: GI
MOLT-4 = assay: Antitumor activity against human MOLT4 cells assessed as cell growth inhibition at 10 uM incubated for 48 hrs by sulforhodamine B assay; assay type: functional; details: read-out: GI
HOP-92 = assay: Antitumor activity against human HOP92 cells assessed as cell growth inhibition at 10 uM incubated for 48 hrs by sulforhodamine B assay; assay type: functional; details: read-out: GI
SW-620 = assay: Antitumor activity against human SW620 cells assessed as cell growth inhibition at 10 uM incubated for 48 hrs by sulforhodamine B assay; details: SW-620, 48 h, read-out: GI
SNB-75 = assay: Antitumor activity against human SNB-75 cells assessed as cell growth inhibition at 10 uM incubated for 48 hrs by sulforhodamine B assay; assay type: functional; details: read-out: GI
SNB-19 = assay: Antitumor activity against human SNB-19 cells assessed as cell growth inhibition at 10 uM incubated for 48 hrs by sulforhodamine B assay; assay type: functional; details: read-out: GI
MDA-MB-231 = assay: Antitumor activity against human MDA-MB-231/ATCC cells assessed as cell growth inhibition at 10 uM incubated for 48 hrs by sulforhodamine B assay; assay type: functional; details: read-out: GI
CCRF-CEM = assay: Antitumor activity against human CCRF-CEM cells assessed as cell growth inhibition at 10 uM incubated for 48 hrs by sulforhodamine B assay; assay type: functional; details: read-out: GI
IGROV-1 = assay: Antitumor activity against human IGROV1 cells assessed as cell growth inhibition at 10 uM incubated for 48 hrs by sulforhodamine B assay; assay type: functional; details: read-out: GI
U-251 = assay: Antitumor activity against human U251 cells assessed as cell growth inhibition at 10 uM incubated for 48 hrs by sulforhodamine B assay; assay type: functional; details: read-out: GI
EKVX = assay: Antitumor activity against human EKVX cells assessed as cell growth inhibition at 10 uM incubated for 48 hrs by sulforhodamine B assay; assay type: functional; details: read-out: GI
HCT-15 = assay: Antitumor activity against human HCT15 cells assessed as cell growth inhibition at 10 uM incubated for 48 hrs by sulforhodamine B assay; assay type: functional; details: read-out: GI
786-0 = assay: Antitumor activity against human 786-0 cells assessed as cell growth inhibition at 10 uM incubated for 48 hrs by sulforhodamine B assay; assay type: functional; details: read-out: GI
UACC-62 = assay: Antitumor activity against human UACC-62 cells assessed as cell growth inhibition at 10 uM incubated for 48 hrs by sulforhodamine B assay; assay type: functional; details: read-out: GI
MDA-MB-468 = assay: Antitumor activity against human MDA-MB-468 cells assessed as cell growth inhibition at 10 uM incubated for 48 hrs by sulforhodamine B assay; assay type: functional; details: read-out: GI
SF-268 = assay: Antitumor activity against human SF268 cells assessed as cell growth inhibition at 10 uM incubated for 48 hrs by sulforhodamine B assay; assay type: functional; details: read-out: GI
Hs-578T = assay: Antitumor activity against human HS 578T cells assessed as cell growth inhibition at 10 uM incubated for 48 hrs by sulforhodamine B assay; assay type: functional; details: read-out: GI

Structure (SMILES): CCN(CC)c1ccc(-c2nc3c4ccccc4c4ccccc4c3[nH]2)c(O)c1
- inhibition of growth at 10 µM (BT-549): < 10%
- inhibition of growth at 10 µM (RXF 393): < 10%
- inhibition of growth at 10 µM (K562): 20.5%
- inhibition of growth at 10 µM (Malme-3M): < 10%
- inhibition of growth at 10 µM (M14): < 10%
- inhibition of growth at 10 µM (SF-295): < 10%
- inhibition of growth at 10 µM (HCC 2998): < 10%
- inhibition of growth at 10 µM (NCI-H460): < 10%
- inhibition of growth at 10 µM (KM12): < 10%
- inhibition of growth at 10 µM (MCF7): 23.8%
- inhibition of growth at 10 µM (LOX IMVI): 11.7%
- inhibition of growth at 10 µM (ACHN): < 10%
- inhibition of growth at 10 µM (MDA-MB-435): < 10%
- inhibition of growth at 10 µM (HT-29): < 10%
- inhibition of growth at 10 µM (NCI-H226): < 10%
- inhibition of growth at 10 µM (COLO 205): < 10%
- inhibition of growth at 10 µM (SK-OV-3): 10.1%
- inhibition of growth at 10 µM (OVCAR-4): < 10%
- inhibition of growth at 10 µM (HL-60(TB)): < 10%
- inhibition of growth at 10 µM (OVCAR-3): < 10%
- inhibition of growth at 10 µM (A498): < 10%
- inhibition of growth at 10 µM (SR): 15.8%
- inhibition of growth at 10 µM (UO-31): 24.4%
- inhibition of growth at 10 µM (SN12C): < 10%
- inhibition of growth at 10 µM (RPMI-8226): < 10%
- inhibition of growth at 10 µM (NCI/ADR-RES): < 10%
- inhibition of growth at 10 µM (OVCAR-8): < 10%
- inhibition of growth at 10 µM (HCT-116): < 10%
- inhibition of growth at 10 µM (SK-MEL-28): < 10%
- inhibition of growth at 10 µM (NCI-H23): < 10%
- inhibition of growth at 10 µM (NCI-H522): 10.4%
- inhibition of growth at 10 µM (PC-3): < 10%
- inhibition of growth at 10 µM (MOLT-4): < 10%
- inhibition of growth at 10 µM (HOP-92): 24.2%
- inhibition of growth at 10 µM (SW-620): < 10%
- inhibition of growth at 10 µM (SNB-75): < 10%
- inhibition of growth at 10 µM (SNB-19): < 10%
- inhibition of growth at 10 µM (MDA-MB-231): 19.4%
- inhibition of growth at 10 µM (CCRF-CEM): < 10%
- inhibition of growth at 10 µM (IGROV-1): < 10%
- inhibition of growth at 10 µM (U-251): < 10%
- inhibition of growth at 10 µM (EKVX): 18.2%
- inhibition of growth at 10 µM (HCT-15): 13.8%
- inhibition of growth at 10 µM (786-0): < 10%
- inhibition of growth at 10 µM (UACC-62): 20.1%
- inhibition of growth at 10 µM (MDA-MB-468): < 10%
- inhibition of growth at 10 µM (SF-268): < 10%
- inhibition of growth at 10 µM (Hs-578T): < 10%
